Common to all, as to type: functional, cell-based
Test [1] concerns MDA-MB-231. As to the kind of experiment: Inhibition of human MDA-MB-231 cells invasion by Matrigel cell invasion assay.
The subject of test [2] is MDA-MB-231. As to the kind of experiment: Inhibition of human MDA-MB-231 cells invasion at <50 ug/mL by Matrigel cell invasion assay.
Test [3] has as its system MDA-MB-231. As to the kind of experiment: Inhibition of human MDA-MB-231 cells invasion at 2.5 ug/mL by Matrigel cell invasion assay.

≈ marks a conversion by molar mass, not a printed value. Calls of active or inactive are those of the source. No cut-off for these calls is given here.

Take `C[C@@]12CC[C@@H]3[C@]4(CCC[C@]3(C)C(=O)OC4)[C@H]1CC[C@](C)(O)[C@H]2Cc1cc(O)ccc1O` [strongylophorine-8]: the midpoint of inhibition in the test with MDA-MB-231 [1], the IC50, lay at 7 µg/mL (≈ 16.3 µM).

The molecule `C[C@@]12CC[C@@H]3[C@]4(CCC[C@]3(C)C(=O)OC4)[C@H]1CC[C@](C)(O)[C@H]2CC1=CC(=O)C=CC1=O` came in with an IC50 with MDA-MB-231 [1] of 7 µg/mL (≈ 16.4 µM).

Regarding `C=C1CCC[C@H]2[C@](C)(CC3=C(O)C(=O)C=C(OC)C3=O)[C@@H](C)CC[C@]12C`, the outcome in the test with MDA-MB-231 [2] was inactive.

Turning to `COC1=CC(=O)C=C(C[C@H]2[C@]3(C)CC[C@@H]4[C@]5(CCC[C@]4(C)C(=O)OC5)[C@H]3CC[C@]2(C)O)C1=O` [strongylophorine-26], the result in the test with MDA-MB-231 [3] was Active. Besides, the half-inhibitory concentration (IC50) with MDA-MB-231 [1] was 1 µg/mL (≈ 2.19 µM).

With `NCCCNCCCN1CCCC/C=C\CCCCCCCC1` [MOTUPORAMINE C], the midpoint of inhibition in the test with MDA-MB-231 [1], the IC50, lay at 0.3 µg/mL (≈ 0.927 µM).

Source of the values: ChEMBL document CHEMBL1148205, “Strongylophorine-26, a new meroditerpenoid isolated from the marine sponge Petrosia (Strongylophora) corticata that exhibits anti-invasion activity” (J Nat Prod, 2004).
